Test results: patent US20230340530A1, “Methods of Protecting RNA” (Pfizer Inc., priority 2020, published 2023)

The molecules below were run against RNA samples (Chi18 or HCV IRES) (assay: Droplet Digital Polymerase Chain Reaction (ddPCR) assay of RNA protection). Conditions: 50 mM Tris buffer pH 11.4, 16 hrs at 30° C. for Chi18 or 42° C. for HCV; table does not say which RNA; 600 µM to 0.018 µM compound, 2% DMSO; read-out: EC50 Values Obtained from the ddPCR Assay.
Format: biochemical
Protocol: The ddPCR assays measured RNA integrity by converting intact RNA to cDNA by reverse transcription, then performing digital PCR in thousands of nanoliter-sized droplets for each sample. PCR was performed within each droplet, which allowed for more sensitive detection of subtle changes in RNA concentration compared to traditional PCR or qPCR. Additionally, primers/probes specific to the 5′ end of the RNA/cDNA transcript(s) were used to assess fragment integrity, i.e. degraded RNA had fewer 5′ positive droplets. The BioRad QX200 Droplet Digital PCR System was used for the ddPCR workflow.
RNA samples (Chi18 or HCV IRES) were diluted to 100 fg/µL in 50 mM Tris buffer pH 11.4. Boron compounds were tested in a dose-response format to determine EC50. A compound dilution plate that contained a 30 mM top concentration of compound in DMSO was serially (half-log) diluted 10 times. A quantity of 0.12 µL of this compound dilution plate was spotted into a 96-well PCR plate (Thermo). Sample RNAs were added (6 µL) and incubated with test compounds as described below. Final compound concentrations ranged from 600 µM to 0.018 µM in 2% DMSO.
For the degradation reaction, treated RNAs were incubated for 16 hrs at 30° C. for Chi18 samples or 42° C. for HCV samples. Upon completion of the degradation reaction, cDNA was made and ddPCR run for each sample (96 well plates). Positive 5′ droplet values were divided by the total accepted droplet values for each sample and a ratio value generated for each sample.
Data was imported into a database where percent (%) protection and compound EC50 were calculated and curated. […] EC50 was determined by using a four parameter logistic equation: Y=A+((B-A)/(1+(C/X)D)); where Y is percent protection, X is compound concentration, A and B are minimum and maximum asymptotes, respectively, C is EC50, and D is Hill slope.

Row | Structure (SMILES) | EC50 [µM]
1 | Cc1cc(CNc2nc(N3CCC[C@@H](c4ccccc4C)C3)nc3[nH]ccc23)on1 [PF-00838447, N-[(3-methyl-1,2-oxazol-5-yl)methyl]-2-[(3S)-3-(2-methylphenyl)piperidin-1-yl]-7H-pyrrolo[2,3-d]pyrimidin-4-amine] | 388
2 | BBBBBBBBBB1C(Cc2ccc(O)cc2)=C1Cc1ccc(O)cc1 [PF-01914444, 4,4′-{[1-(nonaboran-1-yl)-1H-borirene-2,3-diyl]bis(methylene)}diphenol] | 488
3 | CN(C)/C(O)=C/C1=[O+][B-](F)(F)OC=C1c1ccccc1 [PF-03696713, [(1Z)-1-(dimethylamino)-1-hydroxy-5-(hydroxy-kappaO)-4-phenylpenta-1,4-dien-3-onato-kappaO](difluorido)boron] | 400
4 | CN(C)/C(O)=C/C1=[O+][B-](F)(F)Oc2cc(O)ccc21 [PF-03806704, {(2Z)-3-(dimethylamino)-3-hydroxy-1-[4-hydroxy-2-(hydroxy-kappaO)phenyl]prop-2-en-1-onato-kappaO}(difluorido)boron] | 323
5 | Clc1cc2c(cc1Cl)OB(c1ccc(Br)cc1)O2 [PF-04009301, 2-(4-bromophenyl)-5,6-dichloro-2H-1,3,2-benzodioxaborole] | 474
6 | Cc1cc(C(=O)O)ccc1B1OC(C)(C)C(C)(C)O1 [PF-05417781, 3-methyl-4-(4,4,5,5-tetramethyl-1,3,2-dioxaborolan-2-yl)benzoic acid] | 463
7 | OB(c1ccc(Cl)cc1)c1ccc(Cl)cc1 [PF-05690484, bis(4-chlorophenyl)borinic acid] | 355
8 | C=C(CN(C)Cc1ccccc1)[B-](F)(F)F [PF-06840997, {3-[benzyl(methyl)amino]prop-1-en-2-yl}(trifluorido)borate(1-)] | 306
9 | Cc1cccnc1N(C(=O)c1ccc([B-](F)(F)F)cc1)[C@@H]1CCCN(C(=O)OC(C)(C)C)C1 [PF-06875313, (4-{[(3R)-1-(tert-butoxycarbonyl)piperidin-3-yl](3-methylpyridin-2-yl)carbamoyl}phenyl)(trifluor ido)borate(1-)] | 360
10 | CC(C)(C)OC(=O)NCCC[B-](F)(F)F [PF-06934734, {3-[(tert-butoxycarbonyl)amino]propyl}(trifluorido)borate(1-)] | 302
11 | O=C(OB(c1cccc(F)c1)c1cccc(F)c1)c1ncccc1O [PF-06956417] | 430
12 | CC1(C)COC(c2cccc(B(Oc3cccc4cccnc34)c3cccc(F)c3)c2)=N1 [PF-06956596, quinolin-8-yl [3-(4,4-dimethyl-4,5-dihydro-1,3-oxazol-2-yl)phenyl](3-fluorophenyl)borinate] | 300
13 | CN1CCN(Cc2cccc([B@@-]3(c4ccc(F)cc4)Oc4cccc5ccc[n+]3c45)c2)CC1 [PF-06956810, (4-fluorophenyl){3-[(4-methylpiperazin-1-yl)methyl]phenyl}(quinolin-8-olato-kappa-2-N,O)boron] | 140
14 | CN(C)Cc1ccc(B(Oc2cccc3cccnc23)c2cccc(C#N)c2)cc1Cl [PF-06956816, quinolin-8-yl {3-chloro-4-[(dimethylamino)methyl]phenyl}(3-cyanophenyl)borinate] | 137
15 | CN1CCN(Cc2ccc(B(Oc3cccc4cccnc34)c3ccc(C#N)c(Cl)c3)cc2F)CC1 [PF-06956823, quinolin-8-yl (3-chloro-4-cyanophenyl){3-fluoro-4-[(4-methylpiperazin-1-yl)methyl]phenyl}borinate] | 175
16 | CN1CCN(Cc2ccc(B(Oc3cccc4cccnc34)c3ccc(C#N)c(Cl)c3)cc2)CC1 [PF-06956831, quinolin-8-yl (3-chloro-4-cyanophenyl){4-[(4-methylpiperazin-1-yl)methyl]phenyl}borinate] | 242
17 | CN1CCN(Cc2ccc([B@@-]3(c4ccc(C#N)cc4)Oc4cccc5ccc[n+]3c45)cc2Cl)CC1 [PF-06956838, {3-chloro-4-[(4-methylpiperazin-1-yl)methyl]phenyl}(4-cyanophenyl)(quinolin-8-olato-kappa-2-N,O)boron] | 207
18 | O=C(OCc1cccc(B2OCc3cc(F)ccc32)c1)c1ccc2cccc(O)c2n1 [PF-06957137, [3-(5-fluoro-2,1-benzoxaborol-1 (3H)-yl)phenyl]methyl 8-hydroxyquinoline-2-carboxylate] | 429

The next lines start with the values.

Row | EC50 [µM] | Structure (SMILES)
19 | 189 | C[C@H]1c2ccc(NC(=O)CCC(=O)NC[C@H]3CCB(O)O3)c(O)c2C(=O)C2=C(O)[C@]3(O)C(=O)C(C(N)=O)=C(O)[C@@H](N(C)C)[C@@H]3[C@@H](O)[C@@H]21 (racemic) [PF-06968488, N~1~-[(5RS,5aRS,6SR,6aRS,7S R,10aSR)-9-carbamoyl-7-(dimethylamino)-1,6,8,10a,11-pentahydroxy-5-methyl-10,12-dioxo-5,5a,6,6a,7,10,10a,12-octahydrotetracen-2-yl]-N~4~-{[(5RS)-2-hydroxy-1,2-oxaborolan-5-y I]methyl}butanediamide]
20 | 253 | CN1CCN(Cc2cccc(B(Oc3cccc4cccnc34)c3ccc(C#N)cc3)c2)CC1 [PF-06957315, quinolin-8-yl (4-cyanophenyl){3-[(4-methylpiperazin-1-yl)methyl]phenyl}borinate]
21 | 266 | O=C(Nc1ccc2c(c1)B(O)OC2)c1ccccc1 [PF-06957640, N-(1-hydroxy-1,3-dihydro-2,1-benzoxaborol-6-yl)benzamide]
22 | 114 | Cc1cc(Oc2ccnc(NCCN)n2)cc2c1C(CC(=O)O)OB2O (stereo not shown) [PF-06959336, 2-(6-((2-((2-aminoethyl)amino)pyrimidin-4-yl)oxy)-1-hydroxy-4-methyl-1,3-dihydrobenzo[c][1,2]oxabor ol-3-yl)acetic acid]
23 | 226 | O=C(O)C[C@@H]1OB(O)c2cccc(B(O)O)c21 [PF-06961361, [(3S)-4-borono-1-hydroxy-1,3-dihydro-2,1-benzoxaborol-3-yl]acetic acid]
24 | 286 | CN(C)c1cc(NC(=O)CCNC(=O)c2ccc3c(c2)COB3O)c(O)c2c1C[C@H]1C[C@H]3[C@H](N(C)C)C(O)=C(C(N)=O)C(=O)[C@@]3(O)C(O)=C1C2=O [PF-06967772, N-(3-{[(5aR,6aS,7S,10aS)-9-carbamoyl-4,7-bis(dimethylamino)-1,8,10a,11-tetrahydroxy-10,12-dioxo-5,5a,6,6a,7,10,10a,12-octahydrotetracen-2-yl]amino}-3-oxopropyl)-1-hydroxy-1,3-dihydro-2,1-benzoxaborole-5-carboxamide]
25 | 55.6 | CN(C)c1cc(NC(=O)c2ccc3c(c2)B(O)OC3(C)C)c(O)c2c1C[C@H]1C[C@H]3[C@H](N(C)C)C(O)=C(C(N)=O)C(=O)[C@@]3(O)C(O)=C1C2=O [PF-06967791, N-[(5aR,6aS,7S,1 OaS)-9-carbamoyl-4,7-bis(dimethylamino)-1,8,10a,11-tetrahydroxy-10,12-dioxo-5,5a,6,6a,7,10,10a,12-octahydrotetracen-2-yl]-1-hydroxy-3,3-dimethyl-1,3-dihydro-2,1-benzoxaborole-6-carboxamide]
26 | 162 | C[C@H]1c2ccc(NC(=O)c3ccc4c(c3)B(O)OC4(C)C)c(O)c2C(=O)C2=C(O)[C@]3(O)C(=O)C(C(N)=O)=C(O)[C@@H](N(C)C)[C@@H]3[C@@H](O)[C@@H]21 [PF-06968101, N-[(5R,5aR,6S,6aR,7S,10aS)-9-carbamoyl-7-(dimethylamino)-1,6,8,10a,11-pentahydroxy-5-methyl-10,12-dioxo-5,5a,6,6a,7,10,10a,12-octahydrotetracen-2-yl]-1-hydroxy-3,3-dimethyl-1,3-dihydro-2,1-benzoxaborole-6-carboxamide]
27 | 393 | C[C@H]1c2ccc(NC(=O)c3ccc4c(c3)B(O)OC4)c(O)c2C(=O)C2=C(O)[C@]3(O)C(=O)C(C(N)=O)=C(O)[C@@H](N(C)C)[C@@H]3[C@@H](O)[C@@H]21 [PF-06968126, N-[(5R,5aR6S,6aR,7S,10aS)-9-carbamoyl-7-(dimethylamino)-1,6,8,10a,11-pentahydroxy-5-methyl-10,12-dioxo-5,5a,6,6a,7,10,10a,12-octahydrotetracen-2-yl]-1-hydroxy-1,3-dihydro-2,1-benzoxaborole-6-carboxamide]
28 | 166 | C[C@H]1c2ccc(NCCC(=O)Nc3ccc4c(c3)B(O)OCC4)c(O)c2C(=O)C2=C(O)[C@]3(O)C(=O)C(C(N)=O)=C(O)[C@@H](N(C)C)[C@@H]3[C@@H](O)[C@@H]21 [PF-06968237, (4S,4aR,5S,5aR,6R,12aS)-4-(dimethylamino)-3,5,10,12,12a-pentahydroxy-9-({3-[(1-hydroxy-3,4-dihydro-1H-2,1-benzoxaborinin-7-yl)amino]-3-oxopropyl}amino)-6-methyl-1,11-dioxo-1,4,4a,5,5a,6,11,12a-octahyd rotetracene-2-carboxamide]
